Holding throughout (type): functional
The subject of one test is Candida albicans. Briefly: Antifungal activity against Candida albicans.
Another test deals with Candida parapsilosis. Briefly: Antifungal activity against Candida parapsilosis. Conditions: Lodderomyces parapsilosis.
The next test relates to Candida tropicalis. Put plainly: Antifungal activity against Candida tropicalis.
A further test has as its system Cryptococcus neoformans. Briefly: Antifungal activity against Cryptococcus neoformans.
The next test deals with Aspergillus fumigatus. Put plainly: Antifungal activity against Aspergillus fumigatus.
The test system of the next test is Fonsecaea pedrosoi. Put plainly: Antifungal activity against Fonsecaea pedrosoi.
The subject of the next test is Trichophyton rubrum. Briefly: Antifungal activity against Trichophyton rubrum.
The next test has as its system Sporothrix schenckii. Briefly: Antifungal activity against Sporothrix schenckii.
Another test deals with Microsporum. Put plainly: Antifungal activity against Microsporum lanosum.

Values after ≈ are worked out from the molar mass of the structure shown.

Broadly, the MIC80 is an inhibitory concentration at the 80% level, which refers to growth in some studies and to a panel of isolates in others. Read a high MIC80 as lower susceptibility. `CN(Cc1ccc(-n2cnn(Cc3ccc(Cl)cc3)c2=O)cc1)CC(O)(Cn1cncn1)c1ccc(F)cc1F` (stereo unspecified): the MIC80 against Candida albicans was found to be 0.002 µg/mL (≈ 0.00353 µM); with Candida parapsilosis, 0.008 µg/mL (≈ 0.0141 µM); with Candida tropicalis, 0.0625 µg/mL (≈ 0.11 µM); in the test with Cryptococcus neoformans, 0.5 µg/mL (≈ 0.883 µM); against Aspergillus fumigatus, 4 µg/mL (≈ 7.07 µM); in the test on Fonsecaea pedrosoi, 0.125 µg/mL (≈ 0.221 µM). Besides, the MIC80 worked out at 0.5 µg/mL (≈ 0.883 µM) with Trichophyton rubrum and 64 µg/mL (≈ 113 µM) in the test with Sporothrix schenckii.
`CN(Cc1ccc(-n2cnn(Cc3ccc(Br)cc3F)c2=O)cc1)CC(O)(Cn1cncn1)c1ccc(F)cc1F` (stereo unspecified): the MIC80 was determined as 0.002 µg/mL (≈ 0.00318 µM) in the test on Candida albicans; 0.008 µg/mL (≈ 0.0127 µM) in the test on Candida parapsilosis; 0.0625 µg/mL (≈ 0.0995 µM) against Candida tropicalis; 0.125 µg/mL (≈ 0.199 µM) with Cryptococcus neoformans; 4 µg/mL (≈ 6.36 µM) in the test with Aspergillus fumigatus; 0.125 µg/mL (≈ 0.199 µM) against Fonsecaea pedrosoi. The results for the MIC80 against Trichophyton rubrum and against Sporothrix schenckii were 0.5 µg/mL (≈ 0.796 µM) and 64 µg/mL (≈ 102 µM), respectively.
For `Cc1ccc(C(=O)Nc2ccc(CN(C)CC(O)(Cn3cncn3)c3ccc(F)cc3F)cc2)cc1` (stereo unspecified), the MIC80 against Candida albicans stood at 0.016 µg/mL (≈ 0.0326 µM); in the test on Candida parapsilosis, 0.031 µg/mL (≈ 0.0631 µM); in the test with Candida tropicalis, 0.016 µg/mL (≈ 0.0326 µM); in the test on Cryptococcus neoformans, 0.5 µg/mL (≈ 1.02 µM); in the test with Aspergillus fumigatus, 32 µg/mL (≈ 65.1 µM); against Fonsecaea pedrosoi it was 0.25 µg/mL (≈ 0.509 µM). For the same molecule, the values for the MIC80 with Trichophyton rubrum and against Microsporum were not above 0.125 µg/mL and 2 µg/mL (≈ 4.07 µM), respectively.
For `CN(Cc1ccc(NC(=O)c2ccc([N+](=O)[O-])cc2)cc1)CC(O)(Cn1cncn1)c1ccc(F)cc1F` (stereo unspecified), the MIC80 with Candida albicans was 0.0625 µg/mL (≈ 0.12 µM); in the test on Candida parapsilosis it was 0.125 µg/mL (≈ 0.239 µM); in the test with Candida tropicalis it was 0.5 µg/mL (≈ 0.957 µM); in the test on Cryptococcus neoformans, 0.5 µg/mL (≈ 0.957 µM); in the test with Aspergillus fumigatus, more than 64 µg/mL; in the test with Fonsecaea pedrosoi, 0.25 µg/mL (≈ 0.478 µM). In addition, the MIC80 with Trichophyton rubrum was determined as 0.5 µg/mL (≈ 0.957 µM); against Microsporum, 4 µg/mL (≈ 7.66 µM).
For `CN(Cc1ccc(NC(=O)c2cccc([N+](=O)[O-])c2)cc1)CC(O)(Cn1cncn1)c1ccc(F)cc1F` (stereo unspecified), the MIC80 in the test on Candida albicans was determined as 16 µg/mL (≈ 30.6 µM); with Candida parapsilosis, 16 µg/mL (≈ 30.6 µM); against Candida tropicalis it was 4 µg/mL (≈ 7.66 µM); against Cryptococcus neoformans, 0.5 µg/mL (≈ 0.957 µM); in the test with Aspergillus fumigatus, 64 µg/mL (≈ 122 µM); with Fonsecaea pedrosoi, 0.5 µg/mL (≈ 0.957 µM). Further, the MIC80 in the test on Trichophyton rubrum stood at 0.25 µg/mL (≈ 0.478 µM); with Microsporum it was 8 µg/mL (≈ 15.3 µM).
Turning to `CN(Cc1ccc(NC(=O)c2ccccc2Cl)cc1)CC(O)(Cn1cncn1)c1ccc(F)cc1F` (stereo unspecified), the MIC80 was 0.0625 µg/mL (≈ 0.122 µM) with Candida albicans; 0.25 µg/mL (≈ 0.488 µM) in the test on Candida parapsilosis; 0.5 µg/mL (≈ 0.977 µM) against Candida tropicalis; 2 µg/mL (≈ 3.91 µM) against Cryptococcus neoformans; 32 µg/mL (≈ 62.5 µM) against Aspergillus fumigatus; 2 µg/mL (≈ 3.91 µM) with Fonsecaea pedrosoi. Also, the results for the MIC80 in the test with Trichophyton rubrum and in the test with Microsporum were 4 µg/mL (≈ 7.81 µM) and 2 µg/mL (≈ 3.91 µM), respectively.
`CN(Cc1ccc(-n2cnn(Cc3ccc(Cl)cc3Cl)c2=O)cc1)CC(O)(Cn1cncn1)c1ccc(F)cc1F` (stereo unspecified): the MIC80 against Candida albicans is 0.002 µg/mL (≈ 0.00333 µM); against Candida parapsilosis, 0.008 µg/mL (≈ 0.0133 µM); in the test with Candida tropicalis, 0.0625 µg/mL (≈ 0.104 µM); with Cryptococcus neoformans, 0.008 µg/mL (≈ 0.0133 µM); against Aspergillus fumigatus it was 2 µg/mL (≈ 3.33 µM); against Fonsecaea pedrosoi, 0.125 µg/mL (≈ 0.208 µM). The MIC80 is 0.25 µg/mL (≈ 0.416 µM) in the test on Trichophyton rubrum and 4 µg/mL (≈ 6.66 µM) with Sporothrix schenckii.
With `CN(Cc1ccc(-n2cnn(Cc3cccc(Cl)c3)c2=O)cc1)CC(O)(Cn1cncn1)c1ccc(F)cc1F` (stereo unspecified), the MIC80 in the test with Candida albicans is 0.016 µg/mL (≈ 0.0283 µM); against Candida parapsilosis, 4 µg/mL (≈ 7.07 µM); against Candida tropicalis, 0.5 µg/mL (≈ 0.883 µM); with Cryptococcus neoformans it was 0.5 µg/mL (≈ 0.883 µM); in the test with Aspergillus fumigatus it was 8 µg/mL (≈ 14.1 µM); with Fonsecaea pedrosoi it was 0.125 µg/mL (≈ 0.221 µM). Besides, the MIC80 against Trichophyton rubrum is 0.5 µg/mL (≈ 0.883 µM); against Sporothrix schenckii, 32 µg/mL (≈ 56.5 µM).
For the molecule `CN(Cc1ccc(-n2cnn(Cc3ccc(F)cc3Br)c2=O)cc1)CC(O)(Cn1cncn1)c1ccc(F)cc1F` (stereo unspecified), the MIC80 against Candida albicans amounted to 0.004 µg/mL (≈ 0.00636 µM); in the test with Candida parapsilosis, 0.008 µg/mL (≈ 0.0127 µM); against Candida tropicalis, 0.125 µg/mL (≈ 0.199 µM); in the test with Cryptococcus neoformans, 0.125 µg/mL (≈ 0.199 µM); in the test with Aspergillus fumigatus, 16 µg/mL (≈ 25.5 µM); against Fonsecaea pedrosoi it was 0.25 µg/mL (≈ 0.398 µM). Besides, the values for the MIC80 against Trichophyton rubrum and with Sporothrix schenckii were 1 µg/mL (≈ 1.59 µM) and 64 µg/mL (≈ 102 µM), respectively.
On to `CN(Cc1ccc(-n2cnn(Cc3ccc(Br)cc3)c2=O)cc1)CC(O)(Cn1cncn1)c1ccc(F)cc1F` (stereo unspecified), for which the MIC80 in the test on Candida albicans worked out at 0.002 µg/mL (≈ 0.00328 µM); against Candida parapsilosis it was 0.008 µg/mL (≈ 0.0131 µM); against Candida tropicalis, 0.0625 µg/mL (≈ 0.102 µM); against Cryptococcus neoformans, 0.008 µg/mL (≈ 0.0131 µM); against Aspergillus fumigatus, 8 µg/mL (≈ 13.1 µM); against Fonsecaea pedrosoi, 0.0625 µg/mL (≈ 0.102 µM). Also, the MIC80 against Trichophyton rubrum was found to be 0.25 µg/mL (≈ 0.41 µM); with Sporothrix schenckii it was 64 µg/mL (≈ 105 µM).
As for `CN(Cc1ccc(-n2cnn(Cc3ccc(C(C)(C)C)cc3)c2=O)cc1)CC(O)(Cn1cncn1)c1ccc(F)cc1F` (stereo unspecified), the MIC80 against Candida albicans turned out to be 0.031 µg/mL (≈ 0.0528 µM); in the test with Candida parapsilosis it was 4 µg/mL (≈ 6.81 µM); with Candida tropicalis it was 1 µg/mL (≈ 1.7 µM); against Cryptococcus neoformans, 2 µg/mL (≈ 3.4 µM); with Aspergillus fumigatus it was 8 µg/mL (≈ 13.6 µM); with Fonsecaea pedrosoi, 0.25 µg/mL (≈ 0.425 µM). Further, the MIC80 against Trichophyton rubrum was 0.5 µg/mL (≈ 0.851 µM); against Sporothrix schenckii, 32 µg/mL (≈ 54.5 µM).
For the molecule `CN(Cc1ccc(-n2cnn(Cc3ccc(I)cc3)c2=O)cc1)CC(O)(Cn1cncn1)c1ccc(F)cc1F` (stereo unspecified), the MIC80 worked out at 0.031 µg/mL (≈ 0.0472 µM) against Candida albicans; 0.031 µg/mL (≈ 0.0472 µM) in the test on Candida parapsilosis; 1 µg/mL (≈ 1.52 µM) in the test with Candida tropicalis; 0.25 µg/mL (≈ 0.38 µM) against Cryptococcus neoformans; 2 µg/mL (≈ 3.04 µM) in the test with Aspergillus fumigatus; 0.0625 µg/mL (≈ 0.0951 µM) in the test with Fonsecaea pedrosoi. Besides, the MIC80 came out at 0.25 µg/mL (≈ 0.38 µM) in the test with Trichophyton rubrum and 64 µg/mL (≈ 97.3 µM) in the test with Sporothrix schenckii.
